The text below walks through data of PubChem BioAssay AID266 (DTP/NCI, 2004).

The structures appear in SMILES notation. Several values for one entry are separate records, joined by “and”; a condition that tells them apart may be missing. Equal entries are not always repeated. Results filed as inconclusive are left out.

The assay concerns Nude mice, LX-1 lung xenograft intrarenal, tumor weight T/C. The experiment in a line: NCI In Vivo Anticancer Drug Screen. Data for tumor model Human Lung LX-1 Xenograft (intrarenal inoculation) in NU/NU BALB/C (nude) mice. The settings on record: endpoint: mean tumor weight change, higher = larger tumour. The procedure: The antitumor activity of compounds was measured in mice bearing transplantable tumors. Survival or tumor size were measured and the results are expressed as the measurement made in the treated group (T) divided by the measurement made in the vehicle treated control group (C). The tumor model used in this assay is Human Lung LX-1 Xenograft (intrarenal inoculation) in NU/NU BALB/C (nude) mice

Setting [1] is: dose: 300.0 mg/kg/injection, schedule: Q04DX003 (sc), vehicle: saline with Tween-80.
[2] abbreviates: dose: 600.0 mg/kg/injection, schedule: Q04DX003 (sc), vehicle: saline with Tween-80.
Setting [3] is: dose: 1200.0 mg/kg/injection, schedule: Q04DX003 (sc), vehicle: saline with Tween-80.
[4] abbreviates: dose: 2400.0 mg/kg/injection, schedule: Q04DX003 (sc), vehicle: saline with Tween-80.
The mark [5] stands for this setting: dose: 50.0 mg/kg/injection, schedule: Q01DX010 (sc), vehicle: saline.
Where [6] appears, read: dose: 200.0 mg/kg/injection, schedule: Q01DX010 (sc), vehicle: saline.
The mark [7] stands for this setting: dose: 400.0 mg/kg/injection, schedule: Q01DX010 (sc), vehicle: saline.
The mark [8] stands for this setting: dose: 25.0 mg/kg/injection, schedule: Q01DX010 (sc), vehicle: saline.

For `CSc1cc(=O)n2c3ccccc3c3ccnc1c32`, the T/C by setting is: (dose: 80.0 mg/kg/injection, schedule: Q04DX003 (sc), vehicle: saline with Tween-80) 56 % of control; (dose: 160.0 mg/kg/injection, schedule: Q04DX003 (sc), vehicle: saline with Tween-80) 64 % of control; (dose: 320.0 mg/kg/injection, schedule: Q04DX003 (sc), vehicle: saline with Tween-80) 107 % of control.
`Cn1cc(C2NC(=O)c3ccccc3N2)c2ccccc21` (stereo not drawn): the T/C was 83 % of control and 103 % of control (dose: 300.0 mg/kg/injection, schedule: Q04DX003 (sc), vehicle: Klucel (hydroxypropylcellulose) (HPC)); 111 % of control and 92 % of control (dose: 900.0 mg/kg/injection, schedule: Q04DX003 (sc), vehicle: Klucel (hydroxypropylcellulose) (HPC)); 90 % of control and 103 % of control (dose: 1200.0 mg/kg/injection, schedule: Q04DX003 (sc), vehicle: Klucel (hydroxypropylcellulose) (HPC)).
Turning to `Cn1c(=O)[nH]c2nncnc2c1=O`, where the note is “dose: 62.5 mg/kg/injection, schedule: Q04DX003 (sc), vehicle: water”, the T/C was 110 % of control.
With `CCCCCc1cc(O)c2c(c1)OC(C)(C)[C@@H]1CCC(C)=C[C@@H]21`, the T/C was 94 % of control (dose: 150.0 mg/kg/injection, schedule: Q04DX003 (sc), vehicle: other); 91 % of control (dose: 300.0 mg/kg/injection, schedule: Q04DX003 (sc), vehicle: other); 76 % of control (dose: 600.0 mg/kg/injection, schedule: Q04DX003 (sc), vehicle: other); 90 % of control (dose: 1200.0 mg/kg/injection, schedule: Q04DX003 (sc), vehicle: other).
`CC(=O)C(O)N1C(=O)C=CC1=O` (stereo not drawn): the T/C (dose: 2.5 mg/kg/injection, schedule: Q01DX010 (sc), vehicle: saline) is 73 % of control; the T/C (dose: 5.0 mg/kg/injection, schedule: Q01DX010 (sc), vehicle: saline) was 92 % of control; the T/C (dose: 10.0 mg/kg/injection, schedule: Q01DX010 (sc), vehicle: saline) is 101 % of control.
Take `O=P1(N(CCCl)CCCl)NCCCO1` (stereo not drawn): the T/C (dose: 25.0 mg/kg/injection, schedule: Q04DX003 (ip), vehicle: saline) is 101 % of control; the T/C (dose: 50.0 mg/kg/injection, schedule: Q04DX003 (ip), vehicle: saline) was 92 % of control; the T/C (dose: 100.0 mg/kg/injection, schedule: Q04DX003 (ip), vehicle: saline) was 77 % of control; the T/C (dose: 200.0 mg/kg/injection, schedule: Q04DX003 (ip), vehicle: saline) was 50 % of control.
As to `Nc1nc(N)c(N=O)c(Nc2ccc(Br)cc2)n1`, the T/C is 124 % of control under setting [1], 95 % of control under setting [2], 229 % of control under setting [3] and 93 % of control under setting [4].
With `Nc1nc(=S)c2ncn(C3CC(O)C(CO)O3)c2[nH]1` (stereo not drawn), the T/C was 152 % of control (dose: 50.0 mg/kg/injection, schedule: Q01DX010 (sc), vehicle: Klucel (hydroxypropylcellulose) (HPC)); 118 % of control (dose: 100.0 mg/kg/injection, schedule: Q01DX010 (sc), vehicle: Klucel (hydroxypropylcellulose) (HPC)); 73 % of control (dose: 200.0 mg/kg/injection, schedule: Q01DX010 (sc), vehicle: Klucel (hydroxypropylcellulose) (HPC)); 107 % of control (dose: 400.0 mg/kg/injection, schedule: Q01DX010 (sc), vehicle: Klucel (hydroxypropylcellulose) (HPC)).
With `CCC(C(=O)O)C(=O)O.[NH-]CC1CCCC[N-]1.[Pt+2]`, the T/C runs as follows: (dose: 100.0 mg/kg/injection, schedule: Q04DX003 (sc), vehicle: saline) 114 % of control; (dose: 200.0 mg/kg/injection, schedule: Q04DX003 (sc), vehicle: saline) 90 % of control; (dose: 400.0 mg/kg/injection, schedule: Q04DX003 (sc), vehicle: saline) 60 % of control.
Consider `C1CN2CN3CCN(CN1C3)C2`, for which the T/C is, setting by setting: under setting [5], 68 % of control; under setting [6], 48 % of control; under setting [7], 23 % of control.
As to `BrCCC1(CCBr)CCCCC1`, the T/C is, setting by setting: (dose: 300.0 mg/kg/injection, schedule: Q04DX003 (sc), vehicle: water) 104 % of control; (dose: 600.0 mg/kg/injection, schedule: Q04DX003 (sc), vehicle: water) 89 % of control; (dose: 1200.0 mg/kg/injection, schedule: Q04DX003 (sc), vehicle: water) 85 % of control.
Consider `CC(C)C(N)C(=O)Nc1nncs1` (stereo not drawn), for which the T/C runs as follows: (dose: 150.0 mg/kg/injection, schedule: Q04DX003 (sc), vehicle: saline) 102 % of control; (dose: 300.0 mg/kg/injection, schedule: Q04DX003 (sc), vehicle: saline) 74 % of control; (dose: 600.0 mg/kg/injection, schedule: Q04DX003 (sc), vehicle: saline) 78 % of control.
Take `CNC(=O)O/N=C(\CN=[N+]=[N-])C(C)(C)C`: the T/C (dose: 1.25 mg/kg/injection, schedule: Q04DX003 (sc), vehicle: saline) is 73 % of control.
`NC1=NCN(C2OC(CO)C(O)C2O)C(=O)N1` (stereo not drawn): the T/C is 86 % of control under setting [8]; 180 % of control under setting [5]; 112 % of control (dose: 100.0 mg/kg/injection, schedule: Q01DX010 (sc), vehicle: saline); 158 % of control (dose: 166.66 mg/kg/injection, schedule: Q04DX003 (sc), vehicle: saline); 84 % of control under setting [6]; 55 % of control (dose: 333.32 mg/kg/injection, schedule: Q04DX003 (sc), vehicle: saline). Further, the T/C (dose: 666.65 mg/kg/injection, schedule: Q04DX003 (sc), vehicle: saline) is 88 % of control.
Turning to `Cc1ccc(S(=O)(=O)NC(=S)S)cc1`, the T/C is 203 % of control (dose: 100.0 mg/kg/injection, schedule: Q01DX010 (sc), vehicle: saline with Tween-80); 111 % of control (dose: 200.0 mg/kg/injection, schedule: Q01DX010 (sc), vehicle: saline with Tween-80); 196 % of control (dose: 400.0 mg/kg/injection, schedule: Q01DX010 (sc), vehicle: saline with Tween-80).
Turning to `CCOC(=O)c1cn(C)c2c1C(O)=C(C(=O)OC)CC(=O)N2`, the T/C under setting [1] was 99 % of control, the T/C under setting [2] was 55 % of control, the T/C under setting [3] was 111 % of control and the T/C under setting [4] was 154 % of control.
Consider `O=NN(CCCl)C(=O)NC1OC(CO)C(O)C(O)C1O` (stereo not drawn), for which the T/C was 86 % of control (dose: 5.0 mg/kg/injection, schedule: Q04DX003 (sc), vehicle: saline); 55 % of control (dose: 10.0 mg/kg/injection, schedule: Q04DX003 (sc), vehicle: saline); 66 % of control (dose: 20.0 mg/kg/injection, schedule: Q04DX003 (sc), vehicle: saline).
With `CCCCCCCCNc1cc2c3c(c1)CCCN3CCC2`, the T/C (dose: 6.0 mg/kg/injection, schedule: Q04DX003 (sc), vehicle: Klucel (hydroxypropylcellulose) (HPC)) is 155 % of control; the T/C (dose: 12.0 mg/kg/injection, schedule: Q04DX003 (sc), vehicle: Klucel (hydroxypropylcellulose) (HPC)) was 118 % of control; the T/C (dose: 24.0 mg/kg/injection, schedule: Q04DX003 (sc), vehicle: Klucel (hydroxypropylcellulose) (HPC)) was 106 % of control.
Regarding `O=C1C2CC(Cl)C(SSC3CC4C(=O)N(SC(Cl)(Cl)C(Cl)Cl)C(=O)C4CC3Cl)CC2C(=O)N1SC(Cl)(Cl)C(Cl)Cl` (stereo not drawn), the T/C runs as follows: (dose: 75.0 mg/kg/injection, schedule: Q04DX003 (ip), vehicle: Klucel (hydroxypropylcellulose) (HPC)) 83 % of control; (dose: 150.0 mg/kg/injection, schedule: Q04DX003 (ip), vehicle: Klucel (hydroxypropylcellulose) (HPC)) 102 % of control; (dose: 300.0 mg/kg/injection, schedule: Q04DX003 (ip), vehicle: Klucel (hydroxypropylcellulose) (HPC)) 76 % of control; (dose: 600.0 mg/kg/injection, schedule: Q04DX003 (ip), vehicle: Klucel (hydroxypropylcellulose) (HPC)) 48 % of control.
`C/C(=N\NC(=S)N1CCN(c2ccccn2)CC1)c1ccccn1`: the T/C was 106 % of control (dose: 37.5 mg/kg/injection, schedule: Q04DX003 (sc), vehicle: water) and 102 % of control (dose: 75.0 mg/kg/injection, schedule: Q04DX003 (sc), vehicle: water).
For the molecule `O=c1cnn(C2OC(CO)C(O)C2O)c(=O)[nH]1` (stereo not drawn), the T/C was 42 % of control under setting [6]; 46 % of control under setting [7]; 35 % of control (dose: 800.0 mg/kg/injection, schedule: Q01DX010 (sc), vehicle: saline).
For the molecule `C=COC(=O)C(Cc1ccccc1)NC(=O)OCc1ccccc1` (stereo not drawn), the T/C runs as follows: under setting [1], 114 % of control; under setting [2], 118 % of control; under setting [3], 104 % of control.
For the molecule `Nc1cc2[nH]cnc2c(=O)[nH]1`, the T/C is, setting by setting: under setting [8], 75 % of control; under setting [5], 89 % of control.
